Experimental data taken from the supplement of paper PMC10477900.

Tests used:
HCT116 [1] = conditions: 72 h
Experimental: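 HCT116 control and MTA1-KO (CRISPR) HCT116 cells were seeded in 384-well plates (800 cells/well), treated 16 h later with 237 metabolism-related anticancer drugs at five doses (10 uM, 2 uM, 400 nM, 80 nM, 16 nM) for 72 h, two replicates; viability by CCK8. Values are % inhibition of viability relative to untreated cells, plus fitted IC50.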

HCT116 [2] = test: viability inhibition vs untreated; higher = more cytotoxic; conditions: 72 h

CC(C)[C@]12O[C@H]1[C@@H]1O[C@]13[C@]1(O[C@H]1C[C@H]1C4=C(CC[C@@]13C)C(=O)OC4)[C@@H]2O [Triptolide]
IC50 (HCT116 [1]; genotype: MTA1-KO): < 0.016 µM | IC50 (HCT116 [1]; genotype: control): < 0.016 µM | viability inhibition (HCT116 [2]; genotype: MTA1-KO, 16 nM): 58.4% | viability inhibition (HCT116 [2]; genotype: MTA1-KO, 80 nM): 92.8% | viability inhibition (HCT116 [2]; genotype: MTA1-KO, 400 nM): 88.9% | viability inhibition (HCT116 [2]; genotype: MTA1-KO, 2000 nM): 90.8% | viability inhibition (HCT116 [2]; genotype: MTA1-KO, 10000 nM): 92.2% | viability inhibition (HCT116 [2]; genotype: control, 16 nM): 67.7% | viability inhibition (HCT116 [2]; genotype: control, 80 nM): 105% | viability inhibition (HCT116 [2]; genotype: control, 400 nM): 90.1% | viability inhibition (HCT116 [2]; genotype: control, 2000 nM): 89.5% | viability inhibition (HCT116 [2]; genotype: control, 10000 nM): 91.8%

NC(=O)N/N=C/c1ccc([N+](=O)[O-])o1 [Furacilin]
IC50 (HCT116 [1]; genotype: MTA1-KO): > 10 µM | IC50 (HCT116 [1]; genotype: control): > 10 µM | viability inhibition (HCT116 [2]; genotype: MTA1-KO, 16 nM): -10.7% | viability inhibition (HCT116 [2]; genotype: MTA1-KO, 80 nM): -2.24% | viability inhibition (HCT116 [2]; genotype: MTA1-KO, 400 nM): -4.15% | viability inhibition (HCT116 [2]; genotype: MTA1-KO, 2000 nM): 1.42% | viability inhibition (HCT116 [2]; genotype: MTA1-KO, 10000 nM): 5.25% | viability inhibition (HCT116 [2]; genotype: control, 16 nM): 6.06% | viability inhibition (HCT116 [2]; genotype: control, 80 nM): 11.2% | viability inhibition (HCT116 [2]; genotype: control, 400 nM): 22.1% | viability inhibition (HCT116 [2]; genotype: control, 2000 nM): 21.4% | viability inhibition (HCT116 [2]; genotype: control, 10000 nM): -6.53%

CCC(C)(C)C(=O)O[C@H]1C[C@@H](C)C=C2C=C[C@H](C)[C@H](CC[C@@H]3C[C@@H](O)CC(=O)O3)[C@H]21 [Simvastatin]
IC50 (HCT116 [1]; genotype: MTA1-KO): > 10 µM | IC50 (HCT116 [1]; genotype: control): > 10 µM

COC(=O)N1CCN(Cc2cccc(NC(=O)Nc3ccc(C)nc3)c2F)CC1 [Omecamtiv mecarbil]
IC50 (HCT116 [1]; genotype: MTA1-KO): > 10 µM | IC50 (HCT116 [1]; genotype: control): > 10 µM | viability inhibition (HCT116 [2]; genotype: MTA1-KO, 16 nM): -10% | viability inhibition (HCT116 [2]; genotype: MTA1-KO, 80 nM): -12.1% | viability inhibition (HCT116 [2]; genotype: MTA1-KO, 400 nM): -17.5% | viability inhibition (HCT116 [2]; genotype: MTA1-KO, 2000 nM): -17.9% | viability inhibition (HCT116 [2]; genotype: MTA1-KO, 10000 nM): 8.94% | viability inhibition (HCT116 [2]; genotype: control, 16 nM): 8.94% | viability inhibition (HCT116 [2]; genotype: control, 80 nM): 4.13% | viability inhibition (HCT116 [2]; genotype: control, 400 nM): -7.43% | viability inhibition (HCT116 [2]; genotype: control, 2000 nM): 1.24% | viability inhibition (HCT116 [2]; genotype: control, 10000 nM): 5.67%

NS(=O)(=O)c1cc2c(cc1Cl)NC(CSCc1ccccc1)=NS2(=O)=O [Benzthiazide]
IC50 (HCT116 [1]; genotype: MTA1-KO): > 10 µM | IC50 (HCT116 [1]; genotype: control): > 10 µM | viability inhibition (HCT116 [2]; genotype: MTA1-KO, 16 nM): -4.89% | viability inhibition (HCT116 [2]; genotype: MTA1-KO, 80 nM): -8.13% | viability inhibition (HCT116 [2]; genotype: MTA1-KO, 400 nM): -6.12% | viability inhibition (HCT116 [2]; genotype: MTA1-KO, 2000 nM): -11.1% | viability inhibition (HCT116 [2]; genotype: MTA1-KO, 10000 nM): 36.1% | viability inhibition (HCT116 [2]; genotype: control, 16 nM): -2.68% | viability inhibition (HCT116 [2]; genotype: control, 80 nM): 0.658% | viability inhibition (HCT116 [2]; genotype: control, 400 nM): -1.2% | viability inhibition (HCT116 [2]; genotype: control, 2000 nM): 7.85% | viability inhibition (HCT116 [2]; genotype: control, 10000 nM): 44.8%

c1cc(-c2cnn3cc(-c4ccc(OCCN5CCCCC5)cc4)cnc23)ccn1 [Dorsomorphin]
IC50 (HCT116 [1]; genotype: MTA1-KO): > 10 µM | IC50 (HCT116 [1]; genotype: control): > 10 µM | viability inhibition (HCT116 [2]; genotype: MTA1-KO, 16 nM): 1.25% | viability inhibition (HCT116 [2]; genotype: MTA1-KO, 80 nM): -13.4% | viability inhibition (HCT116 [2]; genotype: MTA1-KO, 400 nM): -12.4% | viability inhibition (HCT116 [2]; genotype: MTA1-KO, 2000 nM): -11.7% | viability inhibition (HCT116 [2]; genotype: MTA1-KO, 10000 nM): -1.25% | viability inhibition (HCT116 [2]; genotype: control, 16 nM): 19.5% | viability inhibition (HCT116 [2]; genotype: control, 80 nM): 29.9% | viability inhibition (HCT116 [2]; genotype: control, 400 nM): 18.4% | viability inhibition (HCT116 [2]; genotype: control, 2000 nM): 20.9% | viability inhibition (HCT116 [2]; genotype: control, 10000 nM): 19.6%

NS(=O)(=O)c1cc2c(cc1Cl)NC=NS2(=O)=O [Chlorothiazide]
IC50 (HCT116 [1]; genotype: MTA1-KO): > 10 µM | IC50 (HCT116 [1]; genotype: control): > 10 µM | viability inhibition (HCT116 [2]; genotype: MTA1-KO, 16 nM): -10.2% | viability inhibition (HCT116 [2]; genotype: MTA1-KO, 80 nM): -0.674% | viability inhibition (HCT116 [2]; genotype: MTA1-KO, 400 nM): -4.5% | viability inhibition (HCT116 [2]; genotype: MTA1-KO, 2000 nM): -3.61% | viability inhibition (HCT116 [2]; genotype: MTA1-KO, 10000 nM): -8.39% | viability inhibition (HCT116 [2]; genotype: control, 16 nM): 3.92% | viability inhibition (HCT116 [2]; genotype: control, 80 nM): 0.542% | viability inhibition (HCT116 [2]; genotype: control, 400 nM): 0.606% | viability inhibition (HCT116 [2]; genotype: control, 2000 nM): -0.861% | viability inhibition (HCT116 [2]; genotype: control, 10000 nM): 5.64%

CC1=C(/C=C/C(C)=C/C=C/C(C)=C/C(=O)O)C(C)(C)CCC1 [Tretinoin]
IC50 (HCT116 [1]; genotype: MTA1-KO): > 10 µM | IC50 (HCT116 [1]; genotype: control): > 10 µM | viability inhibition (HCT116 [2]; genotype: MTA1-KO, 16 nM): -24.6% | viability inhibition (HCT116 [2]; genotype: MTA1-KO, 80 nM): -24.4% | viability inhibition (HCT116 [2]; genotype: MTA1-KO, 400 nM): -23.5% | viability inhibition (HCT116 [2]; genotype: MTA1-KO, 2000 nM): -20.8% | viability inhibition (HCT116 [2]; genotype: MTA1-KO, 10000 nM): -24.5% | viability inhibition (HCT116 [2]; genotype: control, 16 nM): -4.55% | viability inhibition (HCT116 [2]; genotype: control, 80 nM): -1.65% | viability inhibition (HCT116 [2]; genotype: control, 400 nM): -12.1% | viability inhibition (HCT116 [2]; genotype: control, 2000 nM): -9.98% | viability inhibition (HCT116 [2]; genotype: control, 10000 nM): -3.87%
